Measurements from patent US6207669A, “Bicyclic heteroaromatic compounds as protein tyrosine kinase inhibitors” (Glaxo Wellcome Inc., priority 1996, dated 2001).
Counter-ions that a name gives are not always drawn. Like-named read-outs stand apart in the source and are kept apart here.

Tests used:
[1] = molecular target: T1, c-erbB-2 (baculovirus expressed, recombinant intracellular domain) (Homo sapiens, UniProt P04626); test: Substrate phosphorylation assay, c-erbB-2; format: biochemical; conditions: 30 minutes, room temperature, ATP and peptide at Km
T1 construct: recombinant constructs of the intracellular domains of c-erbB-2 and c-erbB4 that are constitutively active; made in house
T1 sequence (P04626 676-1255 limits assumed): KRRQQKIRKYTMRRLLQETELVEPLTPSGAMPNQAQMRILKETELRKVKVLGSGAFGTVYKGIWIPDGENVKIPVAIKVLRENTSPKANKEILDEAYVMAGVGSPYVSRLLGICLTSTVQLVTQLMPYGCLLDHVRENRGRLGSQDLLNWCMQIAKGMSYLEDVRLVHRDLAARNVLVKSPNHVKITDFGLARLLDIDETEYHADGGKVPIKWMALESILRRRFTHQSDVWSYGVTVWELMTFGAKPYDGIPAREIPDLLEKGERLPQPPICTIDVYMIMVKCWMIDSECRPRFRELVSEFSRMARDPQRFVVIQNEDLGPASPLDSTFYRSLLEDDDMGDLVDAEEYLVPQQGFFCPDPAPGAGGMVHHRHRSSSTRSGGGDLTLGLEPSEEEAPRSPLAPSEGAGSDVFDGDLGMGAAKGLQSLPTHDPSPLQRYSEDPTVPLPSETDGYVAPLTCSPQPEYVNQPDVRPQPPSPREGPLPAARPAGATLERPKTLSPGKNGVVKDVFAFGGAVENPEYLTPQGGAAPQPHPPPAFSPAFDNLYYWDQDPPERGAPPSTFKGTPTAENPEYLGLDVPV
Method: The substrate phosphorylation assays use baculovirus expressed, recombinant constructs of the intracellular domains of c-erbB-2 and c-erbB4 that are constitutively active and EGFr isolated from solubilised A431 cell membranes. […] The reaction is stopped by the addition of EDTA (final concentration 0.15 mM) and a sample is transferred to a streptavidin-coated 96-well plate. The plate is washed and the level of phosphotyrosine on the peptide is determined using a Europium-labelled antiphosphotyrosine antibody and quantified with a time-resolved fluorescence technique. The results are shown in Table 1 as the IC50 values in nM.

[2] = molecular target: T2, c-erbB4 (baculovirus expressed, recombinant intracellular domain) (Homo sapiens, UniProt Q15303); test: Substrate phosphorylation assay, c-erbB4; format: biochemical; conditions: 30 minutes, room temperature, ATP and peptide at Km; read-out: Substrate Phosphorylation erbB-4 IC50
T2 construct: recombinant constructs of the intracellular domains of c-erbB-2 and c-erbB4 that are constitutively active; made in house
T2 sequence (Q15303 676-1308 limits assumed): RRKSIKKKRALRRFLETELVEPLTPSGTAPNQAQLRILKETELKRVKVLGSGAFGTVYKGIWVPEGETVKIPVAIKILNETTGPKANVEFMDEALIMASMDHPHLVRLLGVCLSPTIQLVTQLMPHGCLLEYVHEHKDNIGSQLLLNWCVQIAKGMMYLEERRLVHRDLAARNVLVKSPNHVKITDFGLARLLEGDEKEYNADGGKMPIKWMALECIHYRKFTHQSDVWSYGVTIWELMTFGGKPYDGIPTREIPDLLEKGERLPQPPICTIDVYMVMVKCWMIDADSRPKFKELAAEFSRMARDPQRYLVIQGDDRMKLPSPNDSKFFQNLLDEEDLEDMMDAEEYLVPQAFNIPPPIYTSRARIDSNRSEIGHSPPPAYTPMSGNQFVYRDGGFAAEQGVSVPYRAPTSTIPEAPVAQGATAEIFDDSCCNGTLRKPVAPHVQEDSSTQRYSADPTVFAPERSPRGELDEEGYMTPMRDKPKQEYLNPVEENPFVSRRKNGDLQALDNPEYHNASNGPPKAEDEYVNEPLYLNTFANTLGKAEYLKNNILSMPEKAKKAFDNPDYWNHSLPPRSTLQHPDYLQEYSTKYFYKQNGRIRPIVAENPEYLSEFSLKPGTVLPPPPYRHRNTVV
Method: (§1) The substrate phosphorylation assays use baculovirus expressed, recombinant constructs of the intracellular domains of c-erbB-2 and c-erbB4 that are constitutively active and EGFr isolated from solubilised A431 cell membranes. The method measures the ability of the isolated enzymes to catalyse the transfer of the γ-phosphate from ATP onto tyrosine residues in a biotinylated synthetic peptide (Biotin-GluGluGluGluTyrPheGluLeuVal). The enzyme is incubated for 30 minutes, at room temperature, with 10 mM […], ATP and peptide at Km concentrations, and test compound (diluted from a 5 mM stock in DMSO, final DMSO concentration is 2%) in 40 mM HEPES buffer, pH 7.4. The reaction is stopped by the addition of EDTA (final concentration 0.15 mM) and a sample is transferred to a streptavidin-coated 96-well plate. The plate is washed and the level of phosphotyrosine on the peptide is determined using a Europium-labelled antiphosphotyrosine antibody and quantified with a time-resolved fluorescence technique. The results are shown in Table 1 as the IC50 values in nM.

[3] = molecular target: T3, EGFr isolated from solubilised A431 cell membranes (Homo sapiens, UniProt P00533); test: Substrate phosphorylation assay, EGFr; format: biochemical; conditions: 30 minutes, room temperature, ATP and peptide at Km
T3 construct: EGFr isolated from solubilised A431 cell membranes; endogenous in cells; host or cells: A431 cells (solubilised membranes)
T3 sequence (P00533 25-1210): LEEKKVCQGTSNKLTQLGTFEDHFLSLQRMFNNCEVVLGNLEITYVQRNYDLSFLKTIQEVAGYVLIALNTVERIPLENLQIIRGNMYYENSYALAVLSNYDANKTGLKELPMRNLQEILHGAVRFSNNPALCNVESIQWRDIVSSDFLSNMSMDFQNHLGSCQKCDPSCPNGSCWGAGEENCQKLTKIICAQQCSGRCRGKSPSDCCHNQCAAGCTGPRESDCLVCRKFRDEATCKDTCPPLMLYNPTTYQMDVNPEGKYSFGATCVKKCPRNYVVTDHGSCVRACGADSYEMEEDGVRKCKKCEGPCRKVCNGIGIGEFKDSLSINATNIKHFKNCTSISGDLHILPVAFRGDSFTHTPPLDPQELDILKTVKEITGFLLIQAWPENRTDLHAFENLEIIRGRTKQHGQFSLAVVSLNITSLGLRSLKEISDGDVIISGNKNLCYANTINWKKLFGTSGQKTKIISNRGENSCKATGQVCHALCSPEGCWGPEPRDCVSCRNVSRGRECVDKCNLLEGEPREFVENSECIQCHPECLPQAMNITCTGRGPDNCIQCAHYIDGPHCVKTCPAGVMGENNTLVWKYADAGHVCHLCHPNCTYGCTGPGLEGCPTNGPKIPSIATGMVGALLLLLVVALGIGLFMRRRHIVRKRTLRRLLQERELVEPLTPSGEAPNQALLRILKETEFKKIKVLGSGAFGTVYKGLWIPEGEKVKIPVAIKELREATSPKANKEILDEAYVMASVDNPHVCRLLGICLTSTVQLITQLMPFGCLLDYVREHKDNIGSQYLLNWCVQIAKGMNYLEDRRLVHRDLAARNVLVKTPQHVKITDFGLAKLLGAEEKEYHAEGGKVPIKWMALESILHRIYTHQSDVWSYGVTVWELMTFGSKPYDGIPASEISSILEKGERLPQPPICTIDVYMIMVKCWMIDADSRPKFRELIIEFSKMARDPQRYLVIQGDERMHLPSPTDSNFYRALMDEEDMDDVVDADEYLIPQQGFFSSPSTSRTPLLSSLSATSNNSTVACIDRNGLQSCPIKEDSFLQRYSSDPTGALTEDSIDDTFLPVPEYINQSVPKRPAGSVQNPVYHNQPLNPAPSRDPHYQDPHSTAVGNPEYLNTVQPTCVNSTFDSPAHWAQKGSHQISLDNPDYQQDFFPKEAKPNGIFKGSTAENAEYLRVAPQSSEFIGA
Method: as §1

[4] = system: HB4a cell line transfected with ras; test: Cell proliferation assay, HB4a ras; format: cell-based; conditions: Homo sapiens, 96 h, 4 days, methylene blue staining, general toxicity comparison
[5] = system: HB4a cell line transformed by over-expression of c-erbB-2; test: Cell proliferation assay, HB4a erbB-2; format: cell-based; conditions: Homo sapiens, 96 h, 4 days, methylene blue staining
Method: (§2) The cell proliferation assay uses an immortalised human breast epithelial cell line (HB4a) which has been transformed by over-expression of c-erbB-2. Growth of these cells in low serum is dependent upon the c-erbB-2 tyrosine kinase activity. […] Cells are plated at 3000/well in 96-well plates in […] medium and allowed to attach overnight. test compound is added in 0.1 ml medium, with a final concentration of 0.5% DMSO, and the plates incubated for 4 days at 37° C. The cells are then examined microscopically for evidence of morphological detransformation and cell mass is estimated by staining with methylene blue and measuring the absorbance at 620 nm. […] Activity against a range of naturally occurring EGFr or c-erbB-2 over-expressing human tumour cell lines (BT474-breast, HN5-head and neck, N87 gastric and Calu3-lung) is assessed with selected compounds by the same methodology.

[6] = system: Calu3-lung tumour cell line; test: Cell proliferation assay, Calu3; format: cell-based; conditions: Homo sapiens, Calu-3, 96 h; 4 days, methylene blue staining
Method: as §2

[7] = system: HN5-head and neck tumour cell line; test: Cell proliferation assay, HN5; format: cell-based; conditions: Homo sapiens, 96 h, read-out: Cell Proliferation HN5 IC50
Method: as §2

[8] = system: N87 gastric tumour cell line; test: Cell proliferation assay, N87; format: cell-based; conditions: Homo sapiens, 96 h; 4 days, methylene blue staining
Method: as §2

[9] = system: BT474-breast tumour cell line; test: Cell proliferation assay, BT474; format: cell-based; conditions: Homo sapiens, BT-474, 96 h; 4 days, methylene blue staining
Method: as §2

[10] = 4 days, methylene blue staining

Row | Structure (SMILES) | IC50 [1] [µM] | IC50 [2] [µM] | IC50 [3] [µM] | IC50 [8] [µM] | IC50 [7, 10] [µM] | IC50 [4] [µM] | IC50 [5] [µM] | IC50 [6] [µM] | IC50 [7] [µM] | IC50 [9] [µM]
1 | c1ccc(COc2ccc(Nc3ncnc4cnc(-c5ccc(CN6CCCCC6)o5)cc34)cc2)cc1 [Example 1, (4-Benzyloxy-phenyl)-(6-(5-piperidin-1-ylmethyl)-furan-2-yl)-pyrido3,4-d]pyrimidin-4-yl)-amine hydrochloride] | 0.07 | 1.4 | 0.17 | – | – | – | – | – | – | –
2 | CN1CCN(Cc2ccc(-c3cc4c(Nc5ccc(OCc6ccccc6)cc5)ncnc4cn3)o2)CC1 [Example 2, (4-Benzyloxy-phenyl)-(6-(5-(4-methyl-piperazin-1-ylmethy)-furan-2-yl)pyrido[3,4-d]pyrimidin-4-yl)-amine] | 0.06 | 0.76 | 0.17 | – | – | 2.1 | 0.43 | – | – | –
3 | CS(=O)(=O)CCNCc1ccc(-c2cc3c(Nc4ccc(OCc5ccccc5)cc4)ncnc3cn2)o1 [Example 3, 4-Benzyloxy-phenyl)-(6-(5-((2-methanesulphonyl-ethylamino)methyl)-furan-2-yl-pyrido[3,4-d]pyrimidin-4-yl)-amine hydrochloride] | 0.01 | 0.19 | 0.14 | – | – | 31 | 0.5 | – | – | –
4 | COC(=O)CNCc1ccc(-c2cc3c(Nc4ccc(OCc5ccccc5)cc4)ncnc3cn2)o1 [Example 4, ((5-4-(4-Benzloxy-phenylamino)-pyrido[3,4-d]pyrimidin-6-yl)-furan-2-ylmethyl)-amino)-acetic acid methyl ester hydrochloride] | 0.013 | 0.53 | 0.13 | – | – | 16 | 29 | – | – | –
5 | c1ccc(COc2ccc(Nc3ncnc4cnc(-c5ccc(CNc6cccnc6)o5)cc34)cc2)cc1 [Example 5, (4-Benzyloxy-phenyl)-(6-(5-(pyridin-3-ylaminomethyl)-furan-2-yl)-pyrido[3,4-d]pyrimidin-4-yl)-amine] | 0.11 | 1.6 | 0.26 | – | – | 8.2 | 5.6 | – | – | –
6 | CN(C)Cc1ccc(-c2cc3c(Nc4ccc(OCc5ccccc5)cc4)ncnc3cn2)o1 [Example 6, (4-Benzyloxy-phenyl)6-(5-(dimethyyaminomethyl)-furan-2-yl)pyrido[3,4-d]pyrimidin4-yl)-amine hydrochloride] | 0.098 | 2.4 | 0.38 | – | – | 2.2 | 1.5 | – | – | –
7 | CN(CC(N)=O)Cc1ccc(-c2cc3c(Nc4ccc(OCc5ccccc5)cc4)ncnc3cn2)o1 [Example 8, 2-((5-(4-(4-Benzyloxy-phenylamino)-pyrido[3,4-d]pyrimidin-6-yl)-furan-2-ylmethyl)-methylamino)-acetamide] | 0.011 | 0.16 | 0.72 | 0.06 | – | 41 | 0.1 | 0.34 | 0.35 | 0.38
8 | OCc1ccc(-c2cc3c(Nc4ccc(OCc5ccccc5)cc4)ncnc3cn2)o1 [Example 12, (5-4-(4-(4-Benzyloxy-phenylamino)-pyrido[3,4-d]pyrimidin-6-yl)-furan-2-yl)-methanol hydrochloride] | 0.004 | 0.49 | 0.031 | – | – | 7.6 | 0.44 | – | 0.46 | –
9 | NC(=O)[C@H]1CCCN1Cc1ccc(-c2cc3c(Nc4ccc(OCc5ccccc5)cc4)ncnc3cn2)o1 [Example 13, (2R)-1-{5-[4-(4-Benzyloxy-phenylamino)-pyrido[3,4-d]pyrimidin-6-yl]-furan-2-ylmethyl}pyrrolidine-2-carboxalic acid amide hydrochloride] | 0.014 | 0.48 | – | – | – | > 50 | 0.17 | – | 0.35 | –

Now from value to compound, other results behind:

Row | IC50 [1] [µM] | IC50 [2] [µM] | IC50 [3] [µM] | IC50 [8] [µM] | IC50 [7, 10] [µM] | Structure (SMILES) | IC50 [4] [µM] | IC50 [5] [µM] | IC50 [6] [µM] | IC50 [7] [µM] | IC50 [9] [µM]
10 | 0.044 | 0.084 | 0.079 | – | – | NC(=O)[C@@H]1CCCN1Cc1ccc(-c2cc3c(Nc4ccc(OCc5ccccc5)cc4)ncnc3cn2)o1 [Example 7, (2S)-1-(5-(4-(4-Benzyloxy-phenylamino)-pyrido[3,4-d]pyrimidine-6-yl)-furan-2-ylmethyl)-pyrrolidine-2-carboxylic acid amide hydrochloride] | 15 | 0.41 | – | – | –
11 | 0.007 | 1 | 0.095 | – | – | CC(=O)NCCNCc1ccc(-c2cc3c(Nc4ccc(OCc5ccccc5)cc4)ncnc3cn2)o1 [Example 9] | 3.9 | 0.73 | – | – | –
12 | 0.022 | – | 0.14 | – | – | C[S+]([O-])CCNCc1ccc(-c2cc3c(Nc4ccc(OCc5ccccc5)cc4)ncnc3cn2)o1 (stereo not drawn) [Example 10, (4-Benzyloxy-phenyl)-(6-(5-((2-methanesulphinyl-ethylamino)-methyl)-furan-2-yl)-pyrido[3,4-d]pyrimidin-4-yl)-amine] | 8.7 | 0.25 | – | – | –
13 | 0.019 | 0.45 | 0.088 | – | – | O=C(O)CNCc1ccc(-c2cc3c(Nc4ccc(OCc5ccccc5)cc4)ncnc3cn2)o1 [Example 11, ((5-(4-(4-Benzyloxy-phenylamino)-pyrido[3,4-d]pyrimidine-6yl)-furan-2-ylmethyl)-amino)-acetic acid hydrochloride] | 5.9 | 50 | – | – | –
14 | 0.42 | 3.9 | – | – | – | CS(=O)(=O)CCCNCc1ccc(-c2cc3c(Nc4ccc(OCc5ccccc5)cc4)ncnc3cn2)o1 [Example 14] | – | – | – | – | –
15 | 0.03 | 1.5 | – | – | – | CN(CCS(C)(=O)=O)Cc1ccc(-c2cc3c(Nc4ccc(OCc5ccccc5)cc4)ncnc3cn2)o1 [Example 15] | 8.5 | 0.3 | – | – | –
16 | 0.28 | 2.8 | – | 0.67 | 3.3 | CN(C)C(=O)[C@@H]1CCCN1Cc1ccc(-c2cc3c(Nc4ccc(OCc5ccccc5)cc4)ncnc3cn2)o1 [Example 16, (2S)-1-{-5-[4-(4-Benzyloxy-phenylamino)-pyrido[3,4-d]pyrimidin-6-yl]-furan-2-ylmethyl}-pyrrolidine-2-carboxylic acid dimethylamide] | 7.9 | 2.1 | – | – | –
17 | 0.029 | 0.76 | – | 0.15 | 0.72 | CS(=O)(=O)NCCNCc1ccc(-c2cc3c(Nc4ccc(OCc5ccccc5)cc4)ncnc3cn2)o1 [Example 17, N-(2-((5-(4-(4-Benzyloxy-phenylamino)-pyrido[3,4-d]pyrimidin-6-yl)-furan-2-ylmethyl)-amino)-ethyl)-methanesulphonamide hydrochloride] | 3.5 | 0.25 | 3.7 | – | 0.1
